PubChem BioAssay AID328 (DTP/NCI, 2004)
“And” between values parts separate entries of the source, which are not always exact repeats. Equal values may be shown once. Toxic doses and inconclusive results are not listed.

Tested on: BDF1 mice, P388 leukemia ip, median survival T/C
Test: NCI In Vivo Anticancer Drug Screen. Data for tumor model P388 Leukemia (intraperitoneal) in B6D2F1 (BDF1) mice
Conditions: endpoint: median survival time, higher = longer survival
Summary of the method: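 In tumour-bearing mice, survival after compound treatment is set against the vehicle group and given as a quotient.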

[1] = dose: 50.0 mg/kg/injection, schedule: Q01DX009 (ip), vehicle: saline with Tween-80
[2] = dose: 100.0 mg/kg/injection, schedule: Q01DX009 (ip), vehicle: saline with Tween-80
[3] = dose: 25.0 mg/kg/injection, schedule: Q01DX009 (ip), vehicle: Klucel (hydroxypropylcellulose) (HPC)
[4] = dose: 100.0 mg/kg/injection, schedule: Q04DX003 (ip), vehicle: Klucel (hydroxypropylcellulose) (HPC)
[5] = dose: 200.0 mg/kg/injection, schedule: Q04DX003 (ip), vehicle: Klucel (hydroxypropylcellulose) (HPC)
[6] = dose: 50.0 mg/kg/injection, schedule: Q01DX005 (ip), vehicle: saline with Tween-80
[7] = dose: 100.0 mg/kg/injection, schedule: Q01DX005 (ip), vehicle: saline with Tween-80
[8] = dose: 200.0 mg/kg/injection, schedule: Q01DX005 (ip), vehicle: saline with Tween-80
[9] = dose: 6.25 mg/kg/injection, schedule: Q01DX009 (ip), vehicle: saline
[10] = dose: 12.5 mg/kg/injection, schedule: Q01DX009 (ip), vehicle: saline
[11] = dose: 25.0 mg/kg/injection, schedule: Q01DX009 (ip), vehicle: saline
[12] = dose: 25.0 mg/kg/injection, schedule: Q04DX003 (ip), vehicle: saline
[13] = dose: 50.0 mg/kg/injection, schedule: Q01DX009 (ip), vehicle: saline
[14] = dose: 50.0 mg/kg/injection, schedule: Q04DX003 (ip), vehicle: saline
[15] = dose: 100.0 mg/kg/injection, schedule: Q01DX009 (ip), vehicle: saline
[16] = dose: 100.0 mg/kg/injection, schedule: Q04DX003 (ip), vehicle: saline
[17] = dose: 200.0 mg/kg/injection, schedule: Q01DX009 (ip), vehicle: saline with Tween-80
[18] = dose: 400.0 mg/kg/injection, schedule: Q01DX009 (ip), vehicle: saline with Tween-80
[19] = dose: 12.5 mg/kg/injection, schedule: Q04DX003 (ip), vehicle: saline

## Cc1cc(N(CCCl)CCCl)c(C)cc1NC(=O)c1ccccc1
dose: 12.5 mg/kg/injection, schedule: Q01DX009 (ip), vehicle: saline with Tween-80
  T/C: 195 % of control
dose: 16.5 mg/kg/injection, schedule: Q04DX003 (ip), vehicle: Klucel (hydroxypropylcellulose) (HPC)
  T/C: 190 % of control
dose: 25.0 mg/kg/injection, schedule: Q04DX003 (ip), vehicle: Klucel (hydroxypropylcellulose) (HPC)
  T/C: 118 % of control
dose: 37.5 mg/kg/injection, schedule: Q04DX003 (ip), vehicle: Klucel (hydroxypropylcellulose) (HPC)
  T/C: 113 % of control

## CC(C)C(O)(C(=O)OCC1=CC[N+]2([O-])CCC(O)C12)C(C)O (configuration not stated)
dose: 200.0 mg/kg/injection, schedule: Q01DX006 (ip), vehicle: water
  T/C: 110 % of control
dose: 800.0 mg/kg/injection, schedule: Q01DX006 (ip), vehicle: water
  T/C: 100 % of control
dose: 1600.0 mg/kg/injection, schedule: Q01DX006 (ip), vehicle: water
  T/C: 94 % of control

## O=C1NNC2CCCCC2O1 (configuration not stated)
[1]
  T/C: 94 % of control
[2]
  T/C: 90 % of control

## CC1(C)OCC2OC3(C(=O)O)OC(C)(C)OC3C2O1 (configuration not stated)
dose: 25.0 mg/kg/injection, schedule: Q01DX009 (ip), vehicle: water
  T/C: 100 % of control
dose: 50.0 mg/kg/injection, schedule: Q01DX009 (ip), vehicle: water
  T/C: 96 % of control
dose: 100.0 mg/kg/injection, schedule: Q01DX009 (ip), vehicle: water
  T/C: 101 % of control
dose: 200.0 mg/kg/injection, schedule: Q01DX009 (ip), vehicle: water
  T/C: 99 % of control
dose: 400.0 mg/kg/injection, schedule: Q01DX009 (ip), vehicle: water
  T/C: 101 % of control

## COc1cc(N(CCCl)CCCl)c(OC)cc1/C=N/NC(=O)CC(N)C(=O)O (configuration not stated)
dose: 16.0 mg/kg/injection, schedule: Q01DX009 (ip), vehicle: Klucel (hydroxypropylcellulose) (HPC)
  T/C: 153 % of control
[3]
  T/C: 150 % of control and 179 % of control
dose: 35.0 mg/kg/injection, schedule: Q01DX009 (ip), vehicle: Klucel (hydroxypropylcellulose) (HPC)
  T/C: 153 % of control
dose: 50.0 mg/kg/injection, schedule: Q01DX009 (ip), vehicle: Klucel (hydroxypropylcellulose) (HPC)
  T/C: 177 % of control
dose: 65.0 mg/kg/injection, schedule: Q04DX003 (ip), vehicle: Klucel (hydroxypropylcellulose) (HPC)
  T/C: 181 % of control
[4]
  T/C: 235 % of control
dose: 132.0 mg/kg/injection, schedule: Q04DX003 (ip), vehicle: Klucel (hydroxypropylcellulose) (HPC)
  T/C: 240 % of control and 247 % of control
[5]
  T/C: 265 % of control and 272 % of control and 180 % of control
dose: 400.0 mg/kg/injection, schedule: Q04DX003 (ip), vehicle: Klucel (hydroxypropylcellulose) (HPC)
  T/C: 100 % of control

## COC(=O)[C@H]1[C@H]2C[C@@H]3c4[nH]c5cc(OC)ccc5c4CCN3C[C@H]2C[C@@H](OC(=O)/C=C/c2cc(OC)c(OC)c(OC)c2)[C@@H]1OC
dose: 0.63 mg/kg/injection, schedule: Q01DX009 (ip), vehicle: saline with Tween-80
  T/C: 90 % of control
dose: 1.25 mg/kg/injection, schedule: Q01DX009 (ip), vehicle: saline with Tween-80
  T/C: 90 % of control
dose: 2.5 mg/kg/injection, schedule: Q01DX009 (ip), vehicle: saline with Tween-80
  T/C: 90 % of control

## CCCCCCCCCCCCCCOc1ccc(Cc2ccccc2)cc1
[4]
  T/C: 100 % of control
[5]
  T/C: 90 % of control

## Cn1ncc(=O)c(Cl)c1S
[6]
  T/C: 97 % of control
[7]
  T/C: 93 % of control
[8]
  T/C: 99 % of control

## CC(C)C([NH-])=O.CC(C)C([NH-])=O.[Cl][Pt+2][Cl]
dose: 3.12 mg/kg/injection, schedule: Q01DX009 (ip), vehicle: saline
  T/C: 93 % of control
[9]
  T/C: 101 % of control and 118 % of control
[10]
  T/C: 87 % of control and 117 % of control
[11]
  T/C: 87 % of control and 112 % of control and 123 % of control
[12]
  T/C: 118 % of control
[13]
  T/C: 95 % of control
[14]
  T/C: 116 % of control
[15]
  T/C: 93 % of control and 112 % of control
[16]
  T/C: 114 % of control

## O=C(Nc1ccccc1)OCc1ccc(OCc2ccccc2)cc1
[1]
  T/C: 89 % of control
[2]
  T/C: 122 % of control
[17]
  T/C: 105 % of control

## CCCP(CCC)c1ccccc1
dose: 25.0 mg/kg/injection, schedule: Q01DX009 (sc), vehicle: olive oil, sesame oil, peanut oil
  T/C: 108 % of control
dose: 50.0 mg/kg/injection, schedule: Q01DX009 (sc), vehicle: olive oil, sesame oil, peanut oil
  T/C: 95 % of control
dose: 100.0 mg/kg/injection, schedule: Q01DX009 (sc), vehicle: olive oil, sesame oil, peanut oil
  T/C: 95 % of control
dose: 100.0 mg/kg/injection, schedule: Q04DX003 (sc), vehicle: olive oil, sesame oil, peanut oil
  T/C: 96 % of control
dose: 200.0 mg/kg/injection, schedule: Q04DX003 (sc), vehicle: olive oil, sesame oil, peanut oil
  T/C: 96 % of control
dose: 400.0 mg/kg/injection, schedule: Q01DX009 (sc), vehicle: olive oil, sesame oil, peanut oil
  T/C: 92 % of control
dose: 400.0 mg/kg/injection, schedule: Q04DX003 (sc), vehicle: olive oil, sesame oil, peanut oil
  T/C: 123 % of control

## CN(C)CCC(=O)O
[2]
  T/C: 100 % of control
[17]
  T/C: 95 % of control
[18]
  T/C: 90 % of control

## CCCCCCCCCCCCCCCCCC[n+]1cccc(C2CCCN2C)c1 (configuration not stated) (tested in a mixture with another compound)
[3]
  T/C: 119 % of control

## CC(C)(C)OC(=O)NCC(=O)NC(Cc1c[nH]c2ccccc12)C(=O)O (configuration not stated)
[6]
  T/C: 102 % of control
[7]
  T/C: 95 % of control
[8]
  T/C: 95 % of control

## CC1(c2cccs2)C(=O)N(Cl)C(=O)N1Cl (configuration not stated)
[19]
  T/C: 100 % of control
[12]
  T/C: 100 % of control
[13]
  T/C: 122 % of control
[14]
  T/C: 118 % of control
[15]
  T/C: 119 % of control
[16]
  T/C: 107 % of control and 109 % of control and 118 % of control
dose: 200.0 mg/kg/injection, schedule: Q01DX009 (ip), vehicle: saline
  T/C: 120 % of control
dose: 200.0 mg/kg/injection, schedule: Q04DX003 (ip), vehicle: saline
  T/C: 118 % of control

## CCOC(=O)C1(C)CCCC1=O (configuration not stated)
[19]
  T/C: 100 % of control
[12]
  T/C: 95 % of control
[14]
  T/C: 90 % of control

## NC1C=CC(CCC(N)C(=O)O)C=C1 (configuration not stated)
[10]
  T/C: 100 % of control
[11]
  T/C: 100 % of control and 105 % of control
[13]
  T/C: 100 % of control
[15]
  T/C: 110 % of control

## Nc1[nH]c(=O)nc2nc[nH]c12
[11]
  T/C: 112 % of control
[13]
  T/C: 98 % of control
[15]
  T/C: 119 % of control

## Cc1noc(C)c1CC1(Cc2c(C)noc2C)C(=O)CCC2(C)CCCC=C21 (configuration not stated)
dose: 50.0 mg/kg/injection, schedule: Q04DX003 (ip), vehicle: Klucel (hydroxypropylcellulose) (HPC)
  T/C: 91 % of control
dose: 100.0 mg/kg/injection, schedule: Q01DX009 (ip), vehicle: Klucel (hydroxypropylcellulose) (HPC)
  T/C: 104 % of control
[4]
  T/C: 104 % of control
dose: 200.0 mg/kg/injection, schedule: Q01DX009 (ip), vehicle: Klucel (hydroxypropylcellulose) (HPC)
  T/C: 95 % of control
[5]
  T/C: 91 % of control

## CC1(C)CC(=O)C=C(OCCc2ccccc2)C1
[2]
  T/C: 100 % of control
[17]
  T/C: 109 % of control
[18]
  T/C: 118 % of control

## CCc1ccccc1NC(=O)c1ccccc1Cl
dose: 100.0 mg/kg/injection, schedule: Q04DX003 (ip), vehicle: other
  T/C: 109 % of control
dose: 200.0 mg/kg/injection, schedule: Q04DX003 (ip), vehicle: other
  T/C: 104 % of control
dose: 400.0 mg/kg/injection, schedule: Q04DX003 (ip), vehicle: other
  T/C: 90 % of control

## OCC1OC(n2ccc3c2ncn2nnnc32)C(O)C1O (configuration not stated)
[9]
  T/C: 97 % of control
[10]
  T/C: 94 % of control
[19]
  T/C: 96 % of control
[11]
  T/C: 94 % of control
[12]
  T/C: 104 % of control
[14]
  T/C: 111 % of control

## [Na+]
dose: 3.0 mg/kg/injection, schedule: Q01DX009 (ip), vehicle: saline
  T/C: 104 % of control
dose: 6.0 mg/kg/injection, schedule: Q01DX009 (ip), vehicle: saline
  T/C: 95 % of control
dose: 12.0 mg/kg/injection, schedule: Q01DX009 (ip), vehicle: saline
  T/C: 104 % of control
[19]
  T/C: 109 % of control
[12]
  T/C: 95 % of control
